Test [1] deals with HaCaT (human keratinocyte cell line). Kind of test: MTT cell viability assay, non-cancerous HaCaT. The test is classed as cell-based. The conditions noted are these: Homo sapiens, HaCaT, 72 h, 72 h of incubation, non-cancerous keratinocytes. Summed up:
(§1)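 Cells in DMEM with 10% FBS, 3 × 10^3 per well, exposed to compounds at 1–100 µM for 72 h at 37 °C. MTT at 0.5 mg/mL for 2 h, formazan dissolved in DMSO and read at 550 nm. Mean ± SD of at least three independent experiments, each in triplicate.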
For orientation: Tetrazolium dyes change colour on reduction, which living cells bring about.

Test [2] deals with HeLa (cervical cancer). Kind of test: MTT cell viability assay, HeLa. The test is classed as cell-based, human. As to conditions: Homo sapiens, HeLa; MTT assay, 72 h of incubation. Summed up:
(§2)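 HCT-116 and HeLa cells in DMEM/10% FBS exposed 72 h to compounds over 1–100 µM. Viability by MTT (0.5 mg/mL, 2 h, 37 °C), formazan dissolved in DMSO and read at 550 nm; mean ± SD of at least three independent experiments.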

Test [3] relates to HCT-116 (colon cancer). Kind of test: MTT cell viability assay, HCT-116. In kind it is cell-based, human. The conditions noted are these: Homo sapiens, HCT-116, 72 h, MTT assay, 72 h of incubation. In a few lines: as §2
In test [4] the test system is MCF-7 (breast cancer). Kind of test: MTT cell viability assay, MCF-7. In kind it is cell-based, human. As to conditions: Homo sapiens, MCF7, 72 h, MTT assay, 72 h of incubation. Summed up:
as §1

Each structure is given as a SMILES string.

Drawing on article PMC9267128, “New 2-[(4-Amino-6-N-substituted-1,3,5-triazin-2-yl)methylthio]-N-(imidazolidin-2-ylidene)-4-chloro-5-methylbenzenesulfonamide Derivatives, Design, Synthesis and Anticancer Evaluation” (International Journal of Molecular Sciences, 2022), this text covers IC50 for 32 compounds.

On to `Cc1cc(S(=O)(=O)N=C2NCCN2Cc2ccc(F)cc2)c(SCc2nc(N)nc(N3CCOCC3)n2)cc1Cl` [Compound 82], for which the IC50 – broadly, the concentration that inhibits the measured activity by half – was determined as 54 ± 2 µM in test [1], 30 ± 1 µM in test [2], 19 ± 0.8 µM in test [3] and 12 ± 0.1 µM in test [4].
`Cc1cc(S(=O)(=O)N=C2NCCN2Cc2ccc(F)cc2)c(SCc2nc(N)nc(N(C)c3ccc(Cl)cc3)n2)cc1Cl` [Compound 90]: the IC50 was 30 ± 2 µM in test [1], 15 ± 0.6 µM in test [2], 12 ± 0.2 µM in test [3] and 17 ± 1 µM in test [4].
Taken in the same sequence, the figures for `Cc1cc(S(=O)(=O)N=C2NCCN2)c(SCc2nc(N)nc(Nc3ccccc3)n2)cc1Cl` [Compound 25] were 54 ± 2 µM, 46 ± 2 µM, 45 ± 2 µM and 46 ± 2 µM.
Regarding `Cc1cc(S(=O)(=O)N=C2NCCN2Cc2ccccc2)c(SCc2nc(N)nc(N3CCN(Cc4ccccc4)CC3)n2)cc1Cl` [Compound 68], the IC50 is 32 ± 2 µM in test [1], 14 ± 0.5 µM in test [2], 16 ± 0.5 µM in test [3] and 16 ± 0.5 µM in test [4].
Turning to `Cc1cc(S(=O)(=O)N=C2NCCN2)c(SCc2nc(N)nc(N3CCN(c4ccccc4F)CC3)n2)cc1Cl` [Compound 33], the IC50 in test [1] was determined as 41 ± 2 µM; in test [2], 25 ± 1 µM; in test [3], 19 ± 0.5 µM; in test [4], 26 ± 1 µM.
On to `Cc1cc(S(=O)(=O)N=C2NCCN2)c(SCc2nc(N)nc(N3CCN(c4ccc(Cl)c(Cl)c4)CC3)n2)cc1Cl` [Compound 38], for which the IC50 in test [1] came to 35 ± 1 µM; in test [2], 19 ± 1 µM; in test [3] it was 15 ± 0.5 µM; in test [4], 28 ± 1 µM.
With `Cc1cc(S(=O)(=O)N=C2NCCN2)c(SCc2nc(N)nc(N3CCN(c4cccc(Cl)c4)CC3)n2)cc1Cl` [Compound 37], the IC50 stood at 37 ± 2 µM in test [1], 24 ± 1 µM in test [2], 18 ± 0.5 µM in test [3] and 19 ± 1 µM in test [4].
On the same counts, the results for `Cc1cc(S(=O)(=O)N=C2NCCN2Cc2cccc3ccccc23)c(SCc2nc(N)nc(N3CCN(Cc4ccccc4)CC3)n2)cc1Cl` [Compound 81] are 240 ± 12 µM, 63 ± 1 µM, 8.4 ± 0.3 µM and 8 ± 0.5 µM.
On the same counts, the results for `Cc1cc(S(=O)(=O)N=C2NCCN2Cc2cc(C(F)(F)F)cc(C(F)(F)F)c2)c(SCc2nc(N)nc(N3CCN(c4ccc(F)cc4)CC3)n2)cc1Cl` [Compound 151] are 28 ± 1 µM, 15 ± 1 µM, 6 ± 0.1 µM and 6 ± 0.1 µM.
Taken in the same sequence, the figures for `Cc1cc(S(=O)(=O)N=C2NCCN2Cc2ccccc2)c(SCc2nc(N)nc(N(C)c3ccccc3)n2)cc1Cl` [Compound 54] were 28 ± 1 µM, 16 ± 0.2 µM, 11 ± 0.1 µM and 12 ± 0.1 µM.
Regarding `Cc1cc(S(=O)(=O)N=C2NCCN2Cc2cccc(C(F)(F)F)c2)c(SCc2nc(N)nc(N3CCCc4ccccc43)n2)cc1Cl` [Compound 112], the IC50 stood at 29 ± 1 µM in test [1], 15.5 ± 1 µM in test [2], 15 ± 0.3 µM in test [3] and 17 ± 1 µM in test [4].
Taken in the same sequence, the figures for `Cc1cc(S(=O)(=O)N=C2NCCN2Cc2ccc(C(F)(F)F)cc2)c(SCc2nc(N)nc(N(C)c3ccccc3)n2)cc1Cl` [Compound 128] were 33 ± 1 µM, 15 ± 0.4 µM, 10 ± 0.3 µM and 14 ± 0.5 µM.
On the same counts, the results for `Cc1cc(S(=O)(=O)N=C2NCCN2Cc2ccccc2)c(SCc2nc(N)nc(N3CCN(c4ccc(F)cc4)CC3)n2)cc1Cl` [Compound 58] are 29 ± 1 µM, 14 ± 2 µM, 11 ± 0.3 µM and 17 ± 1 µM.
Taken in the same sequence, the figures for `Cc1cc(S(=O)(=O)N=C2NCCN2Cc2ccc(C(F)(F)F)cc2)c(SCc2nc(N)nc(Nc3ccc(F)cc3)n2)cc1Cl` [Compound 123] were 30 ± 1 µM, 18 ± 1 µM, 12 ± 0.5 µM and 21 ± 0.6 µM.
Consider `Cc1cc(S(=O)(=O)N=C2NCCN2Cc2ccccc2)c(SCc2nc(N)nc(N(C)C)n2)cc1Cl` [Compound 45], for which the IC50 in test [1] worked out at 43 ± 2 µM; in test [2], 34 ± 1 µM; in test [3] it was 19 ± 0.4 µM; in test [4], 22 ± 0.2 µM.
On the same counts, the results for `Cc1cc(S(=O)(=O)N=C2NCCN2Cc2ccccc2)c(SCc2nc(N)nc(N3CCCc4ccccc43)n2)cc1Cl` [Compound 49] are 38 ± 1 µM, 24 ± 0.5 µM, 14 ± 0.1 µM and 17 ± 0.3 µM.
Taken in the same sequence, the figures for `Cc1cc(S(=O)(=O)N=C2NCCN2Cc2cc(C(F)(F)F)cc(C(F)(F)F)c2)c(SCc2nc(N)nc(Nc3ccccc3)n2)cc1Cl` [Compound 146] were 32 ± 1 µM, 15 ± 1 µM, 11.5 ± 0.5 µM and 12.5 ± 0.6 µM.
Taken in the same sequence, the figures for `Cc1cc(S(=O)(=O)N=C2NCCN2Cc2cccc(C(F)(F)F)c2)c(SCc2nc(N)nc(N3CCN(Cc4ccccc4)CC3)n2)cc1Cl` [Compound 117] were 36 ± 2 µM, 12 ± 0.2 µM, 16 ± 0.5 µM and 17 ± 1 µM.
Take `Cc1cc(S(=O)(=O)N=C2NCCN2Cc2ccc(C(F)(F)F)cc2)c(SCc2nc(N)nc(N3CCN(c4cccc(C(F)(F)F)c4)CC3)n2)cc1Cl` [Compound 135]: the IC50 in test [1] was determined as 19 ± 1 µM; in test [2], 7 ± 0.2 µM; in test [3] it was 5 ± 0.2 µM; in test [4], 6.5 ± 0.3 µM.
On the same counts, the results for `Cc1cc(S(=O)(=O)N=C2NCCN2Cc2ccc(C(F)(F)F)cc2)c(SCc2nc(N)nc(N3CCOCC3)n2)cc1Cl` [Compound 119] are 41 ± 2 µM, 18 ± 1 µM, 13 ± 0.4 µM and 13.5 ± 1 µM.
Taken in the same sequence, the figures for `Cc1cc(S(=O)(=O)N=C2NCCN2Cc2ccc(F)cc2)c(SCc2nc(N)nc(N3CCN(c4ccccc4F)CC3)n2)cc1Cl` [Compound 94] were 25 ± 1 µM, 12 ± 1 µM, 9 ± 0.2 µM and 14 ± 0.5 µM.
On the same counts, the results for `Cc1cc(S(=O)(=O)N=C2NCCN2Cc2ccc(C(F)(F)F)cc2)c(SCc2nc(N)nc(N3CCN(C)CC3)n2)cc1Cl` [Compound 130] are 36 ± 1 µM, 17 ± 0.5 µM, 10.5 ± 0.4 µM and 8 ± 0.3 µM.
For the compound `Cc1cc(S(=O)(=O)N=C2NCCN2Cc2ccc(C(F)(F)F)cc2)c(SCc2nc(N)nc(N3CC=C(c4ccc(F)cc4)CC3)n2)cc1Cl` [Compound 143], the IC50 in test [1] worked out at 19 ± 1 µM; in test [2] it was 7 ± 0.4 µM; in test [3], 4.6 ± 0.1 µM; in test [4], 6 ± 0.3 µM.
Taken in the same sequence, the figures for `Cc1cc(S(=O)(=O)N=C2NCCN2Cc2cc(C(F)(F)F)cc(C(F)(F)F)c2)c(SCc2nc(N)nc(N3CCc4ccccc43)n2)cc1Cl` [Compound 144] were 27 ± 1 µM, 13 ± 0.2 µM, 8 ± 0.5 µM and 8 ± 0.2 µM.
Taken in the same sequence, the figures for `Cc1cc(S(=O)(=O)N=C2NCCN2Cc2ccc(C(F)(F)F)cc2)c(SCc2nc(N)nc(N3CCN(c4ccc(Cl)cc4)CC3)n2)cc1Cl` [Compound 136] were 21 ± 1 µM, 10 ± 0.4 µM, 5 ± 0.1 µM and 6 ± 0.3 µM.
Taken in the same sequence, the figures for `Cc1cc(S(=O)(=O)N=C2NCCN2Cc2ccc(C(F)(F)F)cc2)c(SCc2nc(N)nc(Nc3cccc(Cl)c3)n2)cc1Cl` [Compound 124] were 31 ± 1 µM, 15 ± 0.2 µM, 9.5 ± 0.1 µM and 10 ± 0.5 µM.
Consider `COc1ccc(Nc2nc(N)nc(CSc3cc(Cl)c(C)cc3S(=O)(=O)N=C3NCCN3Cc3ccc(C(F)(F)F)cc3)n2)cc1` [Compound 126], for which the IC50 in test [1] was 37 ± 1 µM; in test [2], 20 ± 1 µM; in test [3], 11 ± 0.6 µM; in test [4], 21 ± 1 µM.
With `Cc1cc(S(=O)(=O)N=C2NCCN2)c(SCc2nc(N)nc(N(C)c3ccc(Cl)cc3)n2)cc1Cl` [Compound 29], the IC50 in test [1] stood at 43 ± 2 µM; in test [2], 32 ± 0.3 µM; in test [3], 25 ± 0.5 µM; in test [4] it was 24 ± 0.2 µM.
On the same counts, the results for `Cc1cc(S(=O)(=O)N=C2NCCN2Cc2ccc(F)cc2)c(SCc2nc(N)nc(N3CCN(c4ccc(Cl)cc4)CC3)n2)cc1Cl` [Compound 96] are 22 ± 1 µM, 9 ± 0.3 µM, 6 ± 0.3 µM and 6 ± 0.2 µM.
Taken in the same sequence, the figures for `Cc1cc(S(=O)(=O)N=C2NCCN2Cc2ccc(Br)cc2)c(SCc2nc(N)nc(N3CCN(c4ccccc4)CC3)n2)cc1Cl` [Compound 106] were 110 ± 4 µM, 82 ± 4 µM, 8.5 ± 0.1 µM and 6.5 ± 0.4 µM.
Regarding `Cc1cc(S(=O)(=O)N=C2NCCN2Cc2cccc3ccccc23)c(SCc2nc(N)nc(N3CCN(c4ccccc4)CC3)n2)cc1Cl` [Compound 77], the IC50 turned out to be 220 ± 11 µM in test [1], 110 ± 5 µM in test [2], 40 ± 1 µM in test [3] and 29 ± 1 µM in test [4].
Taken in the same sequence, the figures for `COc1ccc(Nc2nc(N)nc(CSc3cc(Cl)c(C)cc3S(=O)(=O)N=C3NCCN3Cc3ccccc3)n2)cc1` [Compound 52] were 92 ± 3 µM, 61 ± 2 µM, 37 ± 0.5 µM and 64 ± 2 µM.
